Article PMC12748989 (Nature Communications, 2025)

How the values were obtained:
PBMC = settings: 12.5 µM

Row | Compound | Average (percentage cell inhibition), Mastoparan PBMC (PBMC) [%] | Average (percentage cell inhibition), Dmastoparan MDA-MB231 12.5uM (MDA-MB-231 cells) [%]
1 | CC[C@H](C)[C@H](N)C(=O)N[C@@H](CC(N)=O)C(=O)N[C@@H](CC(C)C)C(=O)N[C@@H](CCCCN)C(=O)N[C@@H](C)C(=O)N[C@@H](CC(C)C)C(=O)N[C@@H](C)C(=O)N[C@@H](C)C(=O)N[C@@H](CC(C)C)C(=O)N[C@@H](C)C(=O)N[C@@H](CCCCN)C(=O)N[C@@H](CCCCN)C(=O)N[C@@H](CC(N)=O)C(=O)N[C@@H](CC(C)C)C(N)=O [N13] | 7.072 | 29.0846
2 | CC[C@H](C)[C@H](N)C(=O)N[C@@H](CCC(=O)O)C(=O)N[C@@H](CC(C)C)C(=O)N[C@@H](CCCCN)C(=O)N[C@@H](C)C(=O)N[C@@H](CC(C)C)C(=O)N[C@@H](C)C(=O)N[C@@H](C)C(=O)N[C@@H](CC(C)C)C(=O)N[C@@H](C)C(=O)N[C@@H](CCCCN)C(=O)N[C@@H](CCCCN)C(=O)N[C@H](C(=O)N[C@@H](CC(C)C)C(N)=O)[C@@H](C)CC [E2] | 11.8092 | 39.1083
3 | CC[C@H](C)[C@H](N)C(=O)N[C@@H](CC(N)=O)C(=O)N[C@H](C(=O)N[C@@H](CCCCN)C(=O)N[C@@H](C)C(=O)N[C@@H](CC(C)C)C(=O)N[C@@H](C)C(=O)N[C@@H](C)C(=O)N[C@@H](CC(C)C)C(=O)N[C@@H](C)C(=O)N[C@@H](CCCCN)C(=O)N[C@@H](CCCCN)C(=O)N[C@H](C(=O)N[C@@H](CC(C)C)C(N)=O)[C@@H](C)CC)C(C)C [V3] | -4.825 | 35.8976
4 | CC[C@H](C)[C@H](N)C(=O)N[C@@H](CC(N)=O)C(=O)N[C@@H](CC(C)C)C(=O)N[C@@H](CCCCN)C(=O)N[C@@H](C)C(=O)N[C@@H](CC(C)C)C(=O)N[C@@H](C)C(=O)N[C@@H](C)C(=O)N[C@@H](CC(C)C)C(=O)NCC(=O)N[C@@H](CCCCN)C(=O)N[C@@H](CCCCN)C(=O)N[C@H](C(=O)N[C@@H](CC(C)C)C(N)=O)[C@@H](C)CC [G10] | 11.4267 | 20.1107
5 | CC[C@H](C)[C@H](N)C(=O)N[C@@H](CC(N)=O)C(=O)N[C@@H](CCC(=O)O)C(=O)N[C@@H](CCCCN)C(=O)N[C@@H](C)C(=O)N[C@@H](CC(C)C)C(=O)N[C@@H](C)C(=O)N[C@@H](C)C(=O)N[C@@H](CC(C)C)C(=O)N[C@@H](C)C(=O)N[C@@H](CCCCN)C(=O)N[C@@H](CCCCN)C(=O)N[C@H](C(=O)N[C@@H](CC(C)C)C(N)=O)[C@@H](C)CC [E3] | 5.899 | 14.5974
6 | CC[C@H](C)[C@H](N)C(=O)N[C@@H](CC(N)=O)C(=O)N[C@@H](CC(C)C)C(=O)N[C@@H](CCCCN)C(=O)N[C@@H](C)C(=O)N[C@@H](CCC(N)=O)C(=O)N[C@@H](C)C(=O)N[C@@H](C)C(=O)N[C@@H](CC(C)C)C(=O)N[C@@H](C)C(=O)N[C@@H](CCCCN)C(=O)N[C@@H](CCCCN)C(=O)N[C@H](C(=O)N[C@@H](CC(C)C)C(N)=O)[C@@H](C)CC [Q6] | -3.273 | -10.4473
7 | CC[C@H](C)[C@H](N)C(=O)N[C@@H](Cc1c[nH]c2ccccc12)C(=O)N[C@@H](CC(C)C)C(=O)N[C@@H](CCCCN)C(=O)N[C@@H](C)C(=O)N[C@@H](CC(C)C)C(=O)N[C@@H](C)C(=O)N[C@@H](C)C(=O)N[C@@H](CC(C)C)C(=O)N[C@@H](C)C(=O)N[C@@H](CCCCN)C(=O)N[C@@H](CCCCN)C(=O)N[C@H](C(=O)N[C@@H](CC(C)C)C(N)=O)[C@@H](C)CC [W2] | 92.9669 | 98.3458
8 | CC[C@H](C)[C@H](NC(=O)[C@H](CCCCN)NC(=O)[C@H](CCCCN)NC(=O)[C@H](C)NC(=O)[C@H](CC(C)C)NC(=O)[C@H](C)NC(=O)[C@H](C)NC(=O)[C@H](CC(C)C)NC(=O)[C@H](C)NC(=O)[C@H](CCCCN)NC(=O)[C@H](CC(C)C)NC(=O)[C@H](CC(N)=O)NC(=O)[C@@H](N)CC(C)C)C(=O)N[C@@H](CC(C)C)C(N)=O [L1] | 20.4049 | 57.5292
9 | CC[C@H](C)[C@H](N)C(=O)N[C@@H](CC(N)=O)C(=O)N[C@@H](CC(C)C)C(=O)N[C@@H](CCCCN)C(=O)N[C@@H](C)C(=O)N[C@@H](CC(C)C)C(=O)N[C@@H](Cc1ccc(O)cc1)C(=O)N[C@@H](C)C(=O)N[C@@H](CC(C)C)C(=O)N[C@@H](C)C(=O)N[C@@H](CCCCN)C(=O)N[C@@H](CCCCN)C(=O)N[C@H](C(=O)N[C@@H](CC(C)C)C(N)=O)[C@@H](C)CC [Y7] | 16.9599 | 74.0703
10 | CC[C@H](C)[C@H](N)C(=O)N[C@@H](CC(N)=O)C(=O)N[C@@H](CC(C)C)C(=O)N[C@@H](C)C(=O)N[C@@H](C)C(=O)N[C@@H](CC(C)C)C(=O)N[C@@H](C)C(=O)N[C@@H](C)C(=O)N[C@@H](CC(C)C)C(=O)N[C@@H](C)C(=O)N[C@@H](CCCCN)C(=O)N[C@@H](CCCCN)C(=O)N[C@H](C(=O)N[C@@H](CC(C)C)C(N)=O)[C@@H](C)CC [A4] | 11.5193 | 36.5883
11 | CC[C@H](C)[C@H](N)C(=O)N[C@@H](CC(N)=O)C(=O)N[C@@H](CC(C)C)C(=O)N[C@@H](CCCNC(=N)N)C(=O)N[C@@H](C)C(=O)N[C@@H](CC(C)C)C(=O)N[C@@H](C)C(=O)N[C@@H](C)C(=O)N[C@@H](CC(C)C)C(=O)N[C@@H](C)C(=O)N[C@@H](CCCCN)C(=O)N[C@@H](CCCCN)C(=O)N[C@H](C(=O)N[C@@H](CC(C)C)C(N)=O)[C@@H](C)CC [R4] | 0.667 | 36.9563
12 | CC[C@H](C)[C@H](NC(=O)[C@H](CCCCN)NC(=O)[C@H](CCCCN)NC(=O)[C@H](C)NC(=O)[C@H](CC(C)C)NC(=O)[C@H](C)NC(=O)[C@H](C)NC(=O)[C@H](CC(C)C)NC(=O)[C@H](C)NC(=O)[C@H](CCCCN)NC(=O)[C@H](CC(C)C)NC(=O)[C@H](CC(N)=O)NC(=O)[C@@H](N)Cc1c[nH]cn1)C(=O)N[C@@H](CC(C)C)C(N)=O [H1] | 0.9359 | 37.0221
13 | CC[C@H](C)[C@H](N)C(=O)N[C@@H](CC(N)=O)C(=O)N[C@@H](CC(C)C)C(=O)N[C@@H](CCCCN)C(=O)N[C@@H](C)C(=O)N[C@@H](CC(C)C)C(=O)N[C@@H](C)C(=O)N[C@@H](C)C(=O)N[C@@H](CC(C)C)C(=O)N[C@@H](C)C(=O)N[C@@H](CCCCN)C(=O)N[C@@H](CCCCN)C(=O)N[C@H](C(=O)N1CCC[C@H]1C(N)=O)[C@@H](C)CC [P14] | -11.4473 | 0.693
14 | CC[C@H](C)[C@H](NC(=O)[C@H](CCCCN)NC(=O)[C@H](CCCCN)NC(=O)[C@H](C)NC(=O)[C@H](CC(C)C)NC(=O)[C@H](C)NC(=O)[C@H](C)NC(=O)[C@H](CC(C)C)NC(=O)[C@H](C)NC(=O)[C@H](CCCCN)NC(=O)[C@H](CC(C)C)NC(=O)[C@H](CC(N)=O)NC(=O)[C@@H](N)Cc1ccc(O)cc1)C(=O)N[C@@H](CC(C)C)C(N)=O [Y1] | 14.8394 | 48.2987
15 | CC[C@H](C)[C@H](N)C(=O)N[C@@H](CC(N)=O)C(=O)N[C@@H](CC(C)C)C(=O)N[C@@H](CCCCN)C(=O)N1CCC[C@H]1C(=O)N[C@@H](CC(C)C)C(=O)N[C@@H](C)C(=O)N[C@@H](C)C(=O)N[C@@H](CC(C)C)C(=O)N[C@@H](C)C(=O)N[C@@H](CCCCN)C(=O)N[C@@H](CCCCN)C(=O)N[C@H](C(=O)N[C@@H](CC(C)C)C(N)=O)[C@@H](C)CC [P5] | 0.2776 | 25.1894
16 | CC[C@H](C)[C@H](N)C(=O)N[C@@H](CC(N)=O)C(=O)N[C@@H](CC(N)=O)C(=O)N[C@@H](CCCCN)C(=O)N[C@@H](C)C(=O)N[C@@H](CC(C)C)C(=O)N[C@@H](C)C(=O)N[C@@H](C)C(=O)N[C@@H](CC(C)C)C(=O)N[C@@H](C)C(=O)N[C@@H](CCCCN)C(=O)N[C@@H](CCCCN)C(=O)N[C@H](C(=O)N[C@@H](CC(C)C)C(N)=O)[C@@H](C)CC [N3] | -0.8054 | 47.2847
17 | CC[C@H](C)[C@H](N)C(=O)N[C@@H](CC(N)=O)C(=O)N[C@@H](CC(C)C)C(=O)N[C@@H](CCCCN)C(=O)N[C@@H](C)C(=O)N[C@H](C(=O)N[C@@H](C)C(=O)N[C@@H](C)C(=O)N[C@@H](CC(C)C)C(=O)N[C@@H](C)C(=O)N[C@@H](CCCCN)C(=O)N[C@@H](CCCCN)C(=O)N[C@H](C(=O)N[C@@H](CC(C)C)C(N)=O)[C@@H](C)CC)[C@@H](C)CC [I6] | 13.3589 | 31.3138
18 | CC[C@H](C)[C@H](N)C(=O)N[C@@H](CC(N)=O)C(=O)N[C@@H](CC(C)C)C(=O)N[C@@H](CCCCN)C(=O)N[C@@H](C)C(=O)N[C@@H](CC(C)C)C(=O)N[C@@H](CC(N)=O)C(=O)N[C@@H](C)C(=O)N[C@@H](CC(C)C)C(=O)N[C@@H](C)C(=O)N[C@@H](CCCCN)C(=O)N[C@@H](CCCCN)C(=O)N[C@H](C(=O)N[C@@H](CC(C)C)C(N)=O)[C@@H](C)CC [N7] | 10.586 | 28.8818
19 | CC[C@H](C)[C@H](N)C(=O)N[C@@H](CC(N)=O)C(=O)N[C@@H](CC(C)C)C(=O)N[C@@H](CCCCN)C(=O)N[C@@H](C)C(=O)N[C@@H](CC(C)C)C(=O)N[C@@H](C)C(=O)N[C@@H](C)C(=O)N[C@@H](CC(C)C)C(=O)N[C@@H](C)C(=O)N[C@@H](CCCCN)C(=O)N[C@@H](CCCCN)C(=O)N[C@@H](Cc1ccc(O)cc1)C(=O)N[C@@H](CC(C)C)C(N)=O [Y13] | 16.5864 | 39.3488
